According to patent US20120016010A1, “RNA Interference Mediated Inhibition of BTB and CNC Homology 1, Basic Leucine Zipper Transcription Factor 1 (BACH1) Gene Expression Using Short Interfering Nucleic Acid (siNA)” (Merck Sharp & Dohme Corp, priority 2009, published 2012):

What was measured:
HMOX-1 mRNA = HMOX-1 mRNA increase in response to Bach1 siNA in human A549 cells; format: cell-based; settings: 24 hrs post-transfection, mean ± SD
Method: A series of probes and primers were used to detect the various mRNA transcripts of the genes of Bach1, HMOX-1, and GAPDH in mouse and human cell lines. The assays were performed on an ABI 7900 instrument, according to the manufacturer's instructions. A TaqMan Gene Expression Master Mix (provided in the Cells-to-CTT™, Applied Biosystems, Cat # 4399002) was used. The PCR reactions were carried out at 50° C. for 2 min, 95° C. for 20 min followed by 40 cycles at 95° C. for 15 secs and 60° C. for 1 min
All calculations of IC50s were performed using SigmaPlot 10.0 software. The data were analyzed using the sigmoidal dose-response (variable slope) equation for simple ligand binding. In all of the calculations of the % knock-down, the calculation was made relative to the normalized level of expression of the gene of interest in the samples treated with the non-targeting control (Ctrl siNA) unless otherwise indicated.
For the statistical measures of significance for the HMOX-1 mRNA increase in response to Bach1 siNA treatment, a two-tailed Student's t-test on the dCt values for wells treated with the non-targeting control siNA compared with the dCt values for wells treated with the highest concentration of each respective active siNA, was performed.
Various siNAs were also evaluated for their potential to knock-down Bach1 protein. As no validated reagents were available to directly track changes in protein expression, this was done by assessing the increase in HMOX-1 mRNA in response to increasing doses of the active Bach1 siNAs.
The siNAs were tested at a single time point post-transfection (24 hrs). This was the time point at which the Bach1 mRNA levels had previously been determined. The non-targeting control siNA was also tested on each plate of samples and was found, across the six plates to show a maximum of 29±12% increase in the level of HMOX-1.
The comparison of the maximum percentage increase in HMOX-1 and EC50 and the maximum percentage decrease of Bach1 and IC50 are shown in Table 6. Table 6 also includes the measure of statistical significance for the increase in HMOX-1 mRNA levels in response to treatment with the respective Bach1 siNA.

TLR7 = biological target: T1, TLR7 (Homo sapiens, UniProt Q9NYK1); format: cell-based
T1 construct: expressed in transfected cells
T1 sequence (Q9NYK1 27-1049): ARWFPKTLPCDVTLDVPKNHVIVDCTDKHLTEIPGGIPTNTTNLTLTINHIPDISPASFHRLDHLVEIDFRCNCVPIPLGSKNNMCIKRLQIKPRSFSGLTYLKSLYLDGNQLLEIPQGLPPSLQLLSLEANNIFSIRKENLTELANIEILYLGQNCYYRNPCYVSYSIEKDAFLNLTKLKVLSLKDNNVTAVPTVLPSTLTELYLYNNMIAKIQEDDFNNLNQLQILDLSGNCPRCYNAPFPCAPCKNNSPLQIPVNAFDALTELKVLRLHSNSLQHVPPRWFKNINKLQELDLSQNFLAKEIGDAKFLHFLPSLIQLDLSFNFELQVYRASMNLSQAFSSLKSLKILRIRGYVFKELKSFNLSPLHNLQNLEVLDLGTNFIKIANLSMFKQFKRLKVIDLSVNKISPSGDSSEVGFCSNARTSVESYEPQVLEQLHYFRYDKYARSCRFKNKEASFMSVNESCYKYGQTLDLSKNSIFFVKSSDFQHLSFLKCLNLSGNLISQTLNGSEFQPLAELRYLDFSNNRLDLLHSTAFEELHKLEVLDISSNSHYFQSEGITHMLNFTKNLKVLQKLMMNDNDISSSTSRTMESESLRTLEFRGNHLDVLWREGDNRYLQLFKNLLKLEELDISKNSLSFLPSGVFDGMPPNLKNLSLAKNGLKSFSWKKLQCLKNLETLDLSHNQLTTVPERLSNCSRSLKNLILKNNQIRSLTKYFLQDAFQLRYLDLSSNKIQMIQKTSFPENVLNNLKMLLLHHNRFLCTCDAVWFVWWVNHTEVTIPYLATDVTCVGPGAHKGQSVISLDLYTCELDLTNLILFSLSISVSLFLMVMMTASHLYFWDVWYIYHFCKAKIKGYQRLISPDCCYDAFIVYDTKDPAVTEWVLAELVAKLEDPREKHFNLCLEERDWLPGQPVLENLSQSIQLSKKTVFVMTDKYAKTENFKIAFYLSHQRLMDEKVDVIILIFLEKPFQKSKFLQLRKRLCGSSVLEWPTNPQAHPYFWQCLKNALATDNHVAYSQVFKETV
Method: Human U205-TLR7 and Human U205-TLR8 cells were grown at 37 degrees in the presence of 5% CO2 and were cultured in Dulbeco's modified Eagle's Medium (DMEM), 1% non essential amino acids, supplemented with fetal bovine serum at 10% and 100 ug/ml streptomycin and 100 u/ml penicillin. Stable expression of TLR7 and TLR8 was maintained by the addition of 300 ug/ml […].
TLR7 and TLR8 expressing U2OS osteosarcoma cells were seeded in 96-well plate format at a concentration of 2×10^4 cells/well 24 hours prior to transfection. Cells were transfected with the siNAs using DharmaFECT1 lipid transfection reagent using Resiquimod (R848) and the LyoVec-complexed, GU-rich oligonucleotide ssRNA40 respectively as controls (100 μl/well). (DharmaFECT1 was used as the delivery agent for the siNAs as it combines low immunostimulatory effects with high delivery efficiency.) The treatment media were replaced after 6 hours with antibiotic containing DMEM. Cells were harvested 24 hours following transfection. […] An agonist concentration range of 4-10 μg/ml was established since it caused optimal levels of IL8 mRNA expression for the assay.
TLR7 and TLR8 mediated immunostimulation was measured by the increase in IL8 mRNA levels when the siNAs were formulated with DharmaFect1 (Gibco BRL) and delivered to U2OS cells that were engineered to stably express TLR7 or TLR8. The cells were treated with the TLR7 and TLR8 agonists Resiquimod (R848) and ssRNA40/LyoVec respectively to act as positive controls for IL8 mRNA induction. IL8 mRNA levels were used as a biomarker of TLR7 and TLR8 mediated immunostimulation.

Substance | EC50 (HMOX-1 mRNA) | Maximum % Hmox-1 Increase in DRC (HMOX-1 mRNA) | Immunostimulation TLR7 mediated in Human U2OS- TLR7 cells IL8 mRNA increase n = 4 individual expts (TLR7) | TLR7 mediated immunostimulatory activity (IL8 mRNA induction) (TLR7)
29947-DC (sense GGAAUCCUGCUUUCAGUUUTT; antisense AAACUGAAAGCAGGAUUCCUU; inverted abasic caps (B), 2'-modified nucleotides, further chemistry not given here) | 37.7 ± 21.5 pM | 187 ± 71% | No significant effect up to 100 nM | no or very low TLR7 mediated immunostimulatory activity
29956-DC (sense GUCUGAGUGUCCGUGGUUATT; antisense UAACCACGGACACUCAGACUU; inverted abasic caps (B), 2'-modified nucleotides, further chemistry not given here) | 30.9 ± 19.9 pM | 308 ± 87% | No significant effect up to 100 nM | –
29957-DC (sense GCAGUUACUUCCACUCAAGTT; antisense CUUGAGUGGAAGUAACUGCUU; inverted abasic end caps, TT overhangs, modified nucleotides, further chemistry not given here) | 33.6 ± 20 pM | 213 ± 29% | Upregulation up to 100 nM | –
29961-DC (sense CUACACUGCUAAACUGAUUTT; antisense AAUCAGUUUAGCAGUGUAGUU; inverted abasic end caps, TT overhangs, modified nucleotides, further chemistry not given here) | 10.4 ± 10 pM | 262 ± 87% | No significant effect up to 100 nM | no or very low TLR7 mediated immunostimulatory activity
29964-DC (sense GAUUUGCAGGUGAUGUUAATT; antisense UUAACAUCACCUGCAAAUCUU; inverted abasic end caps, TT overhangs, modified nucleotides, further chemistry not given here) | 21.8 ± 15.5 pM | 240 ± 30% | No significant effect up to 100 nM | no or very low TLR7 mediated immunostimulatory activity
29984-DC (sense GUUAAAGGAUUUGAACCUUTT; antisense AAGGUUCAAAUCCUUUAACUU; inverted abasic end caps, TT overhangs, modified nucleotides, further chemistry not given here) | – | – | No significant effect up to 100 nM | no or very low TLR7 mediated immunostimulatory activity
29988-DC (sense AUUUGAACCUUUAAUUCAGTT; antisense CUGAAUUAAAGGUUCAAAUUU; inverted abasic end caps, TT overhangs, modified nucleotides, further chemistry not given here) | 38.2 ± 29.8 pM | 190 ± 62% | No significant effect up to 100 nM | no or very low TLR7 mediated immunostimulatory activity
